Source: PubChem BioAssay AID588660 (The Scripps Research Institute Molecular Screening Center, 2011)
Active and inactive are the calls of the source.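 Rule for the calls: active = KLF5 protein level shifted at least 30% from solvent-only control, either down or up; inactive = shift under 30% either way.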

Target: Krueppel-like factor 5 (Homo sapiens) (UniProt Q13887)
Assay: change in KLF5 protein levels, late-stage follow-up, counter-screen for KLF5 inhibitor project, western blot, chemiluminescence, HT29 colorectal cells (AID 588660)
Conditions: 24 h, at 10 µM, stronger effect = higher value

Chain of Krueppel-like factor 5 (Homo sapiens) (Q13887 whole entry, looked up): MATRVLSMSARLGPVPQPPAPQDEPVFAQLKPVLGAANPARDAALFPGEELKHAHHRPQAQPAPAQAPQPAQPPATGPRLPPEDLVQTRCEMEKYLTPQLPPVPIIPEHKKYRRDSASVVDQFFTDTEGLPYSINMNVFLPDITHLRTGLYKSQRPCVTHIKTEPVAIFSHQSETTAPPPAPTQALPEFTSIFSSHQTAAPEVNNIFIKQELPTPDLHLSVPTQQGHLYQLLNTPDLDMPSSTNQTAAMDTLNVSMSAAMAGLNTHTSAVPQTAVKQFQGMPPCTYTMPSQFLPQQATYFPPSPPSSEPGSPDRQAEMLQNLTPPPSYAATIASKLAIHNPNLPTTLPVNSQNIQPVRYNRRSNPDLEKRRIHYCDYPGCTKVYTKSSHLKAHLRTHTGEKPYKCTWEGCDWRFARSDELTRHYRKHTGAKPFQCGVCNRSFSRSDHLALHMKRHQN

inhibition: 12.8% (inactive)
SMILES: CN(C(=O)COC(=O)/C=C/c1cccc([N+](=O)[O-])c1)C1CCS(=O)(=O)C1 (stereo unspecified)
